Literature values in patent US8178105B2, “Composition containing Agaricus blazei Murill” (Kyowa Hakko Bio Co., Ltd., priority 2006, dated 2012).

Test system: Sarcoma-180
Conditions: oral administration; Sarcoma-180 transplanted mouse; non-patent document 5

N=C(N)NCCC[C@H](N)C(=O)O [arginine]
antitumor effect and life extension (in words): marked antitumor effect and life extension
